Columns and labels:
Format in all cases: biochemical
JAK3 = target: T1, JAK3 (Homo sapiens, UniProt P52333); assay: JAK3 kinase inhibition, ADP-Glo luminescence assay; details: substrate Poly (4:1 Glu, Tyr)
T1 construct: purchased Carna 08-046
Text: (§1) A drug screening system based on kinases JAK1, JAK2, JAK3, and TYK2 was used to detect the inhibitory ability of small molecule compounds on kinase activity. A kinase undergoes an enzymatic reaction with its substrates IRS 1, IGF1Rtide, and Poly (4:1 Glu, Tyr), consuming ATP to produce ADP, wherein the ADP-Glo reagent and luminescence method were used to detect the amount of the product to reflect the activity of the kinase. 2.1 Experimental Materials and Instruments
(§2) a) Dilute a compound solution to be tested by 5 times with 100% DMSO. […] The final concentration of DMSO is 0.5%. d) Transfer 4 μL of ADP-Glo to the 384-well reaction plate, centrifuge it at 1000 rpm/min for 1 min, and incubate it at 25° C. for 40 min. e) Transfer 8 μL of Detection solution to the 384-well reaction plate, centrifuge it at 1000 rpm/min for 1 min, and incubate it at 25° C. for 40 min. f) Use Biotek multi-function plate reader to read the RLU (Relative luminescence unit) signal. The signal intensity is used to characterize the degree of kinase activity.
(§3) IC50 (half inhibitory concentration) of the compound can be obtained using the following nonlinear fitting formula:
(§4) Y=Bottom+(Top−Bottom)/(1+10^((Log IC50−X)*HillSlope))

JAK1 = JAK1 (Homo sapiens, UniProt P23458); assay: JAK1 kinase inhibition, ADP-Glo luminescence assay; set-up: purchased Carna 08-144; details: substrate IRS1
Sequence of JAK1 (P23458 850-1154 limits assumed): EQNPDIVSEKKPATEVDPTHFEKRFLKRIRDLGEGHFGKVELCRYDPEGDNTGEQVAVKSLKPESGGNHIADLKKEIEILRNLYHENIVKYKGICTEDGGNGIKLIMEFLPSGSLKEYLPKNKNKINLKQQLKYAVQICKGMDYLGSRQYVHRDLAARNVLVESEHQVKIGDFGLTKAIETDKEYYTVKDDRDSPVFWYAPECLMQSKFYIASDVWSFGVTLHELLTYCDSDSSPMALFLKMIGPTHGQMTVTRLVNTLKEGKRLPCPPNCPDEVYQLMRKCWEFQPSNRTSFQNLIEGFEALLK
Text: as §1, §2, §3, §4

JAK2 = JAK2 (Homo sapiens, UniProt O60674); assay: JAK2 kinase inhibition, ADP-Glo luminescence assay; set-up: purchased Carna 08-045; details: substrate IGF1Rtide
Sequence of JAK2 (O60674 826-1132 limits assumed): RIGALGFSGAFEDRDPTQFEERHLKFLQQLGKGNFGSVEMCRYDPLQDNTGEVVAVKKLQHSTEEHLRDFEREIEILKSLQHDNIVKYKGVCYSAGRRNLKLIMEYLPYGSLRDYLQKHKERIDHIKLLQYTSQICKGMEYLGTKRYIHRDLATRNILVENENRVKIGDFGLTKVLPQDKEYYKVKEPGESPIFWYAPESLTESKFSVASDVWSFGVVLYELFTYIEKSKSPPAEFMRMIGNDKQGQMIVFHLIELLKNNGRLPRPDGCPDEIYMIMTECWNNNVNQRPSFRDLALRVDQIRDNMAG
Text: as §1, §2, §3, §4

TYK2 = target: T2, TYK2 (Homo sapiens, UniProt P29597); assay: TYK2 kinase inhibition, ADP-Glo luminescence assay; details: substrate IRS1
T2 sequence (P29597 871-1187 limits assumed): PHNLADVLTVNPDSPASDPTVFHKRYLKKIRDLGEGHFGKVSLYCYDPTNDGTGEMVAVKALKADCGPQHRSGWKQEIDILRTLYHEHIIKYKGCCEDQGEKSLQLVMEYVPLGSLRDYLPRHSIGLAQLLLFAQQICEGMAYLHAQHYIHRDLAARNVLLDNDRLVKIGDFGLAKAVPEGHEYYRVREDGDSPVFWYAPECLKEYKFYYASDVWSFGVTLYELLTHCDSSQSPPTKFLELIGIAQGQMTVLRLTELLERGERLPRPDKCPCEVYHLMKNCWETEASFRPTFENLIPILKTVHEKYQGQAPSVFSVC
Text: as §1, §2, §3, §4

T1 sequence (P52333 795-1124 limits assumed): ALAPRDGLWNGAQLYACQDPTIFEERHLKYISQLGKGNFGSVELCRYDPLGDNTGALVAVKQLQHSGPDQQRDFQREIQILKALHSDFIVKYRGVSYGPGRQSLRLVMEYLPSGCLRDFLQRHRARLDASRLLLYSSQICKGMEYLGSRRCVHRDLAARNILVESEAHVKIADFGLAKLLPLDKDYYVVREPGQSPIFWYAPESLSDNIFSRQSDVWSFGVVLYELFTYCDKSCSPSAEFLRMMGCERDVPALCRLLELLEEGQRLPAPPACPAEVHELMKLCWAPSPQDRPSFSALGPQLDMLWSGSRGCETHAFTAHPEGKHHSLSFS

| SMILES | IC50 (JAK3) [nM] | IC50 (JAK1) [nM] | IC50 (JAK2) [nM] | IC50 (TYK2) [nM] |
| --- | --- | --- | --- | --- |
| CCc1cc(O)c(F)cc1-c1ccc2c(-c3nc(CN4CCC(O)CC4)c[nH]3)n[nH]c2c1 [Ex-9, 1-((2-(6-(2-ethyl-5-fluoro-4-hydroxyphenyl)-1H-indazol-3-yl)-1H-imidazol-4-yl)methyl)piperidin-4-ol] | 1.3 | 1.3 | 1.5 | 19.8 |
| CCc1cc(O)c(F)cc1-c1ccc2c(-c3nc(CN(C)C(=O)C4CC4)c[nH]3)n[nH]c2c1 [Ex-10, N-((2-(6-(2-ethyl-5-fluoro-4-hydroxyphenyl)-1H-indazol-3-yl)-1H-imidazol-4-yl)methyl)-N-methylcyclopropanecarboxamide] | 4.5 | 1.2 | 5.2 | 27 |
| CCc1cc(O)c(F)cc1-c1ccc2c(-c3nc(CN4CCC(C#N)CC4)c[nH]3)n[nH]c2c1 [Ex-11, 1-((2-(6-(2-ethyl-5-fluoro-4-hydroxyphenyl)-1H-indazol-3-yl)-1H-imidazol-4-yl)methyl)piperidine-4-nitrile] | 2.5 | 0.31 | 0.85 | 18.4 |
| CCc1cc(O)c(F)cc1-c1ccc2c(-c3nc(CN4CCC(C#N)C4)c[nH]3)n[nH]c2c1 (centres unmarked) [Ex-12, 1-((2-(6-(2-ethyl-5-fluoro-4-hydroxyphenyl)-1H-indazol-3-yl)-1H-imidazol-4-yl)methyl)pyrrolidine-3-carbonitrile] | 0.67 | 0.1 | 0.74 | 6.1 |
| CCc1cc(O)c(F)cc1-c1ccc2c(-c3nc(CN4CCOCC4)c[nH]3)n[nH]c2c1 [Ex-13, 5-ethyl-2-fluoro-4-(3-(4-(morpholinomethyl)-1H-imidazol-2-yl)-1H-indazol-6-yl)phenol] | 1.7 | 0.48 | 0.84 | 11.3 |
| CCc1cc(O)c(F)cc1-c1ccc2c(-c3nc(CNc4cccnc4)c[nH]3)n[nH]c2c1 [Ex-14, 5-ethyl-2-fluoro-4-(3-(4-((pyridin-3-ylamino)methyl)-1H-imidazol-2-yl)-1H-indazol-6-yl)phenol] | 1.6 | 0.47 | 1.2 | 9.6 |
| CCc1cc(O)c(F)cc1-c1ccc2c(-c3nc(CNc4cnn(C)c4)c[nH]3)n[nH]c2c1 [Ex-15, 5-ethyl-2-fluoro-4-(3-(4-(((1-methyl-1H-pyrazol-4-yl)amino)methyl)-1H-imidazol-2-yl)-1H-indazol-6-yl)phenol] | 0.76 | 0.29 | 0.78 | 4.9 |
| CCc1cc(O)c(F)cc1-c1ccc2c(-c3nc(CNC(=O)N(C)CCO)c[nH]3)n[nH]c2c1 [Ex-16, 3-((2-(6-(2-ethyl-5-fluoro-4-hydroxyphenyl)-1H-indazol-3-yl)-1H-imidazol-4-yl)methyl)-1-(2-hydroxyethyl)-1-methylurea] | 0.43 | 0.16 | 0.5 | 0.97 |
| CCc1cc(O)c(F)cc1-c1ccc2c(-c3nc(CNCC4CC4)c[nH]3)n[nH]c2c1 [Ex-17, 4-(3-(4-(((cyclopropylmethyl)amino)methyl)-1H-imidazol-2-yl)-1H-indazol-6-yl)-5-ethyl-2-fluoro phenol] | 2.9 | 0.36 | 1.2 | 6.5 |
| CCc1cc(O)c(F)cc1-c1ccc2c(-c3nc(CNS(=O)(=O)C4CC4)c[nH]3)n[nH]c2c1 [Ex-18, N-((2-(6-(2-ethyl-5-fluoro-4-hydroxyphenyl)-1H-indazol-3-yl)-1H-imidazol-4-yl)methyl)cyclopropanesulfonamide] | 1.1 | 0.15 | 1.4 | 3.7 |
| CCc1cc(O)c(F)cc1-c1ccc2c(-c3nc(CNS(=O)(=O)CC)c[nH]3)n[nH]c2c1 [Ex-19, N-((2-(6-(2-ethyl-5-fluoro-4-hydroxyphenyl)-1H-indazol-3-yl)-1H-imidazol-4-yl)methyl)ethanesulfonamide] | 2.3 | 0.33 | 3.3 | 6.4 |
| CCc1cc(O)c(F)cc1-c1ccc2c(-c3nc(CNC(=O)N4CCC(O)CC4)c[nH]3)n[nH]c2c1 [Ex-20, N-((2-(6-(2-ethyl-5-fluoro-4-hydroxyphenyl)-1H-indazol-3-yl)-1H-imidazol-4-yl)methyl)-4-hydroxypiperidine-1-carboxamide] | 0.43 | 0.1 | 0.53 | 1 |
| CCc1cc(O)c(F)cc1-c1ccc2c(-c3nc(CN(C)C(=O)N4CC[C@@H](O)C4)c[nH]3)n[nH]c2c1 [Ex-21, (R)—N-((2-(6-(2-ethyl-5-fluoro-4-hydroxyphenyl)-1H-indazol-3-yl)-1H-imidazol-4-yl)methyl)-3-hydroxy-N-methylpyrrolidine-1-carboxamide] | 0.64 | 0.21 | 0.72 | 6.9 |
| CCc1cc(O)c(F)cc1-c1ccc2c(-c3nc(CNC(=O)N4CC[C@@H](O)C4)c[nH]3)n[nH]c2c1 [Ex-22, (R)—N-((2-(6-(2-ethyl-5-fluoro-4-hydroxyphenyl)-1H-indazol-3-yl)-1H-imidazol-4-yl)methyl)-3-hydroxypyrrolidine-1-carboxamide] | 0.48 | 0.14 | 0.68 | 1.1 |
| CCc1cc(O)c(F)cc1-c1ccc2c(-c3nc(CNC(=O)N4CC[C@H](O)C4)c[nH]3)n[nH]c2c1 [Ex-23, (S)—N-((2-(6-(2-ethyl-5-fluoro-4-hydroxyphenyl)-1H-indazol-3-yl)-1H-imidazol-4-yl)methyl)-3-hydroxypyrrolidine-1-carboxamide] | 0.49 | 0.15 | 0.68 | 0.96 |
| CCc1cc(O)c(F)cc1-c1ccc2c(-c3nc(CN(C)CCO)c[nH]3)n[nH]c2c1 [Ex-24, 5-ethyl-2-fluoro-4-(3-(4-(((2-hydroxyethyl)(methyl)amino)methyl)-1H-imidazol-2-yl)-1H-indazol-6-yl)phenol] | 3.3 | 0.37 | 1.3 | 23 |
| CCc1cc(O)c(F)cc1-c1ccc2c(-c3nc(CNS(=O)(=O)C(C)C)c[nH]3)n[nH]c2c1 [Ex-25, N-((2-(6-(2-ethyl-5-fluoro-4-hydroxyphenyl)-1H-indazol-3-yl)-1H-imidazol-4-yl)methyl)propane-2-sulfonamide] | 2.5 | 0.4 | 2.8 | 7 |
| CCc1cc(O)c(F)cc1-c1ccc2c(-c3nc(CNC(=O)OC)c[nH]3)n[nH]c2c1 [Ex-26, methyl ((2-(6-(2-ethyl-5-fluoro-4-hydroxyphenyl)-1H-indazol-3-yl)-1H-imidazol-4-yl)methyl)carbamate] | 0.57 | 0.43 | 0.43 | 1.7 |
| CCc1cc(O)c(F)cc1-c1ccc2c(-c3nc(CNC(=O)OCCC#N)c[nH]3)n[nH]c2c1 [Ex-27, 2-cyanoethyl ((2-(6-(2-ethyl-5-fluoro-4-hydroxyphenyl)-1H-indazol-3-yl)-1H-imidazol-4-yl)methyl) carbamate] | 4.4 | 0.92 | 6.3 | 9.2 |
| CCc1cc(O)c(F)cc1-c1ccc2c(-c3nc(CNC(=O)C4CCC4)c[nH]3)n[nH]c2c1 [Ex-28, N-((2-(6-(2-ethyl-5-fluoro-4-hydroxyphenyl)-1H-indazol-3-yl)-1H-imidazol-4-yl)methyl)cyclobutanecarboxamide] | 1 | 0.14 | 0.86 | 1.6 |
| CCc1cc(O)c(F)cc1-c1ccc2c(-c3nc(CNC(=O)C4CCN(C)C4)c[nH]3)n[nH]c2c1 (centres unmarked) [Ex-29, N-((2-(6-(2-ethyl-5-fluoro-4-hydroxyphenyl)-1H-indazol-3-yl)-1H-imidazol-4-yl)methyl)-1-methylpyrrolidine-3-carboxamide] | 9.3 | 1.1 | 13.3 | 16.8 |
| CCc1cc(O)c(F)cc1-c1ccc2c(-c3nc(CN4CC5CCC4CC5)c[nH]3)n[nH]c2c1 [Ex-30, 4-(3-(4-((2-azabicyclo[2.2.2]octan-2-yl)methyl)-1H-imidazol-2-yl)-1H-indazol-6-yl)-5-ethyl-2-fluorophenol] | 4.5 | 0.52 | 1.8 | 30 |
| CCc1cc(O)c(F)cc1-c1ccc2c(-c3nc(CNC4CCC4)c[nH]3)n[nH]c2c1 [Ex-31, 4-(3-(4-((cyclobutylamino)methyl)-1H-imidazol-2-yl)-1H-indazol-6-yl)-5-ethyl-2-fluorophenol] | 3.7 | 0.1 | 1.6 | 17.3 |
